This data set is described as follows: Solubility of Lysine in 2-Methyl-1-propanol. It counts as physicochemical. As to conditions: organic solvent or mixture.

What is called solubility is the dissolved amount per volume that the medium holds.

Values after ≈ are worked out from the molar mass of the structure shown.

On to `NCCCC[C@H](N)C(=O)O` [Lysine], for which the solubility was around 26 mg/mL (≈ 178 mM).

Source of the values: patent publication US12528760B2 (DOMPÉ FARMACEUTICI S.P.A., priority 2019, dated 2026).
